Experiments:
[1] = test system: IPOHE (Morningglory, Ivyleaf); assay: Preemergence herbicidal evaluation; assay type: in vivo, Ipomoea hederacea; conditions: rated 4-5 weeks after treatment
Procedure, shortened: (§1)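 Visual 0-9 rating vs control (stand, vigor, malformation, size, chlorosis, overall appearance), scored 4-5 wk after spraying. Seeded soil cups were treated preemergence with compound in aqueous acetone, ~0.0156-0.500 kg/ha equivalent.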

AMBEL (Ragweed, Common) [2] = assay: Postemergence herbicidal evaluation; assay type: in vivo, Ambrosia artemisifolia; conditions: postemergence
Procedure, shortened: (§2)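 Visual 0-9 injury score (stand, vigor, malformation, size, chlorosis, appearance vs untreated) taken four to five weeks post-spray, averaged across repeat tests. Test plants about two weeks old; foliar spray of acetone/water (1:1) with 0.5% surfactant delivering ~0.0156-0.500 kg active/ha.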

ECHCG (Barnyardgrass) = assay: Postemergence herbicidal evaluation; assay type: in vivo, Echinochloa crus-galli; conditions: postemergence
Procedure, shortened: as §2

ABUTH (Velvetleaf) = assay: Preemergence herbicidal evaluation; assay type: in vivo, Abutilon theophrasti; conditions: rated 4-5 weeks after treatment
Procedure, shortened: as §1

AMBEL (Ragweed, Common) [3] = assay: Preemergence herbicidal evaluation; assay type: in vivo, Ambrosia artemisifolia; conditions: rated 4-5 weeks after treatment
Procedure, shortened: as §1

[4] = test system: IPOHE (Morningglory, Ivyleaf); assay: Postemergence herbicidal evaluation; assay type: in vivo, Ipomoea hederacea; conditions: postemergence
Procedure, shortened: as §2

[5] = test system: TRZAWR (Wheat, Winter, cv Riband); assay: Postemergence herbicidal evaluation; assay type: in vivo, Triticum aestivum; conditions: postemergence
Procedure, shortened: as §2

CASOB (Sicklepod) [6] = assay: Preemergence herbicidal evaluation; assay type: in vivo, Cassia obtusifolia; conditions: rated 4-5 weeks after treatment
Procedure, shortened: as §1

[7] = test system: CHEAL (Lambsquarters, Common); assay: Preemergence herbicidal evaluation; assay type: in vivo, Chenopodium album; conditions: rated 4-5 weeks after treatment
Procedure, shortened: as §1

[8] = test system: GLXMAW (Soybean, Williams); assay: Postemergence herbicidal evaluation; assay type: in vivo, Glycine max, (L.) Merr. cv Williams; conditions: postemergence
Procedure, shortened: as §2

CASOB (Sicklepod) [9] = assay: Postemergence herbicidal evaluation; assay type: in vivo, Cassia obtusifolia; conditions: postemergence
Procedure, shortened: as §2

[10] = test system: CHEAL (Lambsquarters, Common); assay: Postemergence herbicidal evaluation; assay type: in vivo, Chenopodium album; conditions: postemergence
Procedure, shortened: as §2

ORYSAT (Rice, Tebonnet) = assay: Preemergence herbicidal evaluation; assay type: in vivo, Oryza sativa, (L.) Tebonnet; conditions: rated 4-5 weeks after treatment
Procedure, shortened: as §1

[11] = test system: GLXMAW (Soybean, Williams); assay: Preemergence herbicidal evaluation; assay type: in vivo, Glycine max, (L.) Merr. cv Williams; conditions: rated 4-5 weeks after treatment
Procedure, shortened: as §1

[12] = test system: SAGPY (Arrowhead (Pygmaea)); assay: Preemergence weed control under flooded paddy conditions; assay type: in vivo, Sagittaria pygmaea; conditions: rated 3-4 weeks after treatment
Procedure, shortened: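 Ratings on a 0-9 visual scale cover stand, vigor, malformation, size, chlorosis and overall appearance relative to a control, taken three to four weeks post-treatment. Application was into flood water over freshly sown silt loam at roughly 0.0313 to 0.500 kg/ha.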

What does the source list for `COC(=O)[C@H](Cc1ccccc1)N1C(=O)CS/C1=N/c1cc(-n2c(=O)cc(C(F)(F)F)n(C)c2=O)c(F)cc1Cl` [Compound 72, Methyl α-benzyl-2-{{2-chloro-5-[3,6-dihydro-3-methyl-2,6-dioxo-4-(trifluoromethyl)-1(2H)-pyrimidinyl]-4-fluorophenyl]imino}-4-oxo-3-thiazolidineacetate, L-]?
Preemergence herbicidal rating IPOHE ([1]; rate 0.0156 kg/ha): 0.0; Preemergence herbicidal rating IPOHE ([1]; rate 0.0313 kg/ha): 0.0; Preemergence herbicidal rating IPOHE ([1]; rate 0.0625 kg/ha): 0.0; Preemergence herbicidal rating IPOHE ([1]; rate 0.1250 kg/ha): 2.0; Preemergence herbicidal rating IPOHE ([1]; rate 0.2500 kg/ha): 7.0; AMBEL herbicidal rating (AMBEL (Ragweed, Common) [2]; rate 0.0158 kg/ha): 5.0; AMBEL herbicidal rating (AMBEL (Ragweed, Common) [2]; rate 0.0315 kg/ha): 9.0; AMBEL herbicidal rating (AMBEL (Ragweed, Common) [2]; rate 0.0630 kg/ha): 6.0; ECHCG herbicidal rating (ECHCG (Barnyardgrass); rate 0.0158 kg/ha): 1.0; ECHCG herbicidal rating (ECHCG (Barnyardgrass); rate 0.0315 kg/ha): 3.0; ECHCG herbicidal rating (ECHCG (Barnyardgrass); rate 0.0630 kg/ha): 3.0; Preemergence herbicidal rating ABUTH (ABUTH (Velvetleaf); rate 0.0156 kg/ha): 2.0; Preemergence herbicidal rating ABUTH (ABUTH (Velvetleaf); rate 0.0313 kg/ha): 9.0; Preemergence herbicidal rating ABUTH (ABUTH (Velvetleaf); rate 0.0625 kg/ha): 9.0; Preemergence herbicidal rating ABUTH (ABUTH (Velvetleaf); rate 0.1250 kg/ha): 9.0; Preemergence herbicidal rating ABUTH (ABUTH (Velvetleaf); rate 0.2500 kg/ha): 9.0; Preemergence herbicidal rating AMBEL (AMBEL (Ragweed, Common) [3]; rate 0.0156 kg/ha): 0.0; Preemergence herbicidal rating AMBEL (AMBEL (Ragweed, Common) [3]; rate 0.0625 kg/ha): 2.0; Preemergence herbicidal rating AMBEL (AMBEL (Ragweed, Common) [3]; rate 0.1250 kg/ha): 9.0; Preemergence herbicidal rating AMBEL (AMBEL (Ragweed, Common) [3]; rate 0.2500 kg/ha): 9.0; IPOHE herbicidal rating ([4]; rate 0.0158 kg/ha): 9.0; IPOHE herbicidal rating ([4]; rate 0.0315 kg/ha): 7.0; IPOHE herbicidal rating ([4]; rate 0.0630 kg/ha): 9.0; TRZAWR herbicidal rating ([5]; rate 0.0158 kg/ha): 3.5; TRZAWR herbicidal rating ([5]; rate 0.0315 kg/ha): 4.0; TRZAWR herbicidal rating ([5]; rate 0.0630 kg/ha): 4.5; Preemergence herbicidal rating CASOB (CASOB (Sicklepod) [6]; rate 0.0156 kg/ha): 0.0; Preemergence herbicidal rating CASOB (CASOB (Sicklepod) [6]; rate 0.0313 kg/ha): 0.0; Preemergence herbicidal rating CASOB (CASOB (Sicklepod) [6]; rate 0.0625 kg/ha): 0.0; Preemergence herbicidal rating CASOB (CASOB (Sicklepod) [6]; rate 0.1250 kg/ha): 1.0; Preemergence herbicidal rating CASOB (CASOB (Sicklepod) [6]; rate 0.2500 kg/ha): 1.0; Preemergence herbicidal rating CHEAL ([7]; rate 0.0156 kg/ha): 9.0; Preemergence herbicidal rating CHEAL ([7]; rate 0.0313 kg/ha): 9.0; Preemergence herbicidal rating CHEAL ([7]; rate 0.0625 kg/ha): 9.0; Preemergence herbicidal rating CHEAL ([7]; rate 0.1250 kg/ha): 9.0; Preemergence herbicidal rating CHEAL ([7]; rate 0.2500 kg/ha): 9.0; GLXMAW herbicidal rating ([8]; rate 0.0158 kg/ha): 5.5; GLXMAW herbicidal rating ([8]; rate 0.0315 kg/ha): 5.5; GLXMAW herbicidal rating ([8]; rate 0.0630 kg/ha): 7.0; CASOB herbicidal rating (CASOB (Sicklepod) [9]; rate 0.0158 kg/ha): 8.0; CASOB herbicidal rating (CASOB (Sicklepod) [9]; rate 0.0315 kg/ha): 6.0; CASOB herbicidal rating (CASOB (Sicklepod) [9]; rate 0.0630 kg/ha): 7.0; CHEAL herbicidal rating ([10]; rate 0.0158 kg/ha): 7.0; CHEAL herbicidal rating ([10]; rate 0.0315 kg/ha): 9.0; Preemergence herbicidal rating ORYSAT (ORYSAT (Rice, Tebonnet); rate 0.0156 kg/ha): 0.0; Preemergence herbicidal rating ORYSAT (ORYSAT (Rice, Tebonnet); rate 0.0313 kg/ha): 0.0; Preemergence herbicidal rating ORYSAT (ORYSAT (Rice, Tebonnet); rate 0.0625 kg/ha): 0.0; Preemergence herbicidal rating ORYSAT (ORYSAT (Rice, Tebonnet); rate 0.1250 kg/ha): 1.0; Preemergence herbicidal rating ORYSAT (ORYSAT (Rice, Tebonnet); rate 0.2500 kg/ha): 1.0; Preemergence herbicidal rating GLXMAW ([11]; rate 0.0156 kg/ha): 0.0; Preemergence herbicidal rating GLXMAW ([11]; rate 0.0313 kg/ha): 0.0; Preemergence herbicidal rating GLXMAW ([11]; rate 0.0625 kg/ha): 0.0; Preemergence herbicidal rating GLXMAW ([11]; rate 0.1250 kg/ha): 1.0; Preemergence herbicidal rating GLXMAW ([11]; rate 0.2500 kg/ha): 3.0; SAGPY herbicidal effect rating ([12]; 0.0313 kg/ha): 4.0; SAGPY herbicidal effect rating ([12]; 0.0625 kg/ha): 4.0; SAGPY herbicidal effect rating ([12]; 0.1250 kg/ha): 4.0; SAGPY herbicidal effect rating ([12]; 0.2500 kg/ha): 4.0

What does the source list for `Cn1c(C(F)(F)F)cc(=O)n(-c2cc(N=C3SCC(=O)N3C3CCOC3=O)c(Cl)cc2F)c1=O` (stereo not shown) [Compound 73]?
Preemergence herbicidal rating IPOHE ([1]; rate 0.0156 kg/ha): 0.0; Preemergence herbicidal rating IPOHE ([1]; rate 0.0313 kg/ha): 1.0; Preemergence herbicidal rating IPOHE ([1]; rate 0.0625 kg/ha): 0.0; Preemergence herbicidal rating IPOHE ([1]; rate 0.1250 kg/ha): 1.0; Preemergence herbicidal rating IPOHE ([1]; rate 0.2500 kg/ha): 7.0; AMBEL herbicidal rating (AMBEL (Ragweed, Common) [2]; rate 0.0158 kg/ha): 9.0; AMBEL herbicidal rating (AMBEL (Ragweed, Common) [2]; rate 0.0315 kg/ha): 9.0; AMBEL herbicidal rating (AMBEL (Ragweed, Common) [2]; rate 0.0630 kg/ha): 9.0; ECHCG herbicidal rating (ECHCG (Barnyardgrass); rate 0.0158 kg/ha): 2.0; ECHCG herbicidal rating (ECHCG (Barnyardgrass); rate 0.0315 kg/ha): 2.0; ECHCG herbicidal rating (ECHCG (Barnyardgrass); rate 0.0630 kg/ha): 3.0; Preemergence herbicidal rating ABUTH (ABUTH (Velvetleaf); rate 0.0156 kg/ha): 9.0; Preemergence herbicidal rating ABUTH (ABUTH (Velvetleaf); rate 0.0313 kg/ha): 9.0; Preemergence herbicidal rating ABUTH (ABUTH (Velvetleaf); rate 0.0625 kg/ha): 9.0; Preemergence herbicidal rating ABUTH (ABUTH (Velvetleaf); rate 0.1250 kg/ha): 9.0; Preemergence herbicidal rating ABUTH (ABUTH (Velvetleaf); rate 0.2500 kg/ha): 9.0; Preemergence herbicidal rating AMBEL (AMBEL (Ragweed, Common) [3]; rate 0.0156 kg/ha): 1.0; Preemergence herbicidal rating AMBEL (AMBEL (Ragweed, Common) [3]; rate 0.0313 kg/ha): 0.0; Preemergence herbicidal rating AMBEL (AMBEL (Ragweed, Common) [3]; rate 0.0625 kg/ha): 4.0; Preemergence herbicidal rating AMBEL (AMBEL (Ragweed, Common) [3]; rate 0.1250 kg/ha): 9.0; Preemergence herbicidal rating AMBEL (AMBEL (Ragweed, Common) [3]; rate 0.2500 kg/ha): 9.0; IPOHE herbicidal rating ([4]; rate 0.0158 kg/ha): 9.0; IPOHE herbicidal rating ([4]; rate 0.0315 kg/ha): 9.0; IPOHE herbicidal rating ([4]; rate 0.0630 kg/ha): 9.0; TRZAWR herbicidal rating ([5]; rate 0.0158 kg/ha): 3.5; TRZAWR herbicidal rating ([5]; rate 0.0315 kg/ha): 4.0; TRZAWR herbicidal rating ([5]; rate 0.0630 kg/ha): 5.0; Preemergence herbicidal rating CASOB (CASOB (Sicklepod) [6]; rate 0.0313 kg/ha): 0.0; Preemergence herbicidal rating CASOB (CASOB (Sicklepod) [6]; rate 0.0625 kg/ha): 0.0; Preemergence herbicidal rating CASOB (CASOB (Sicklepod) [6]; rate 0.1250 kg/ha): 1.0; Preemergence herbicidal rating CASOB (CASOB (Sicklepod) [6]; rate 0.2500 kg/ha): 2.0; Preemergence herbicidal rating CHEAL ([7]; rate 0.0156 kg/ha): 9.0; Preemergence herbicidal rating CHEAL ([7]; rate 0.0313 kg/ha): 9.0; Preemergence herbicidal rating CHEAL ([7]; rate 0.0625 kg/ha): 9.0; Preemergence herbicidal rating CHEAL ([7]; rate 0.1250 kg/ha): 9.0; Preemergence herbicidal rating CHEAL ([7]; rate 0.2500 kg/ha): 9.0; GLXMAW herbicidal rating ([8]; rate 0.0158 kg/ha): 6.0; GLXMAW herbicidal rating ([8]; rate 0.0315 kg/ha): 5.5; GLXMAW herbicidal rating ([8]; rate 0.0630 kg/ha): 7.5; CASOB herbicidal rating (CASOB (Sicklepod) [9]; rate 0.0158 kg/ha): 1.0; CASOB herbicidal rating (CASOB (Sicklepod) [9]; rate 0.0315 kg/ha): 7.0; CASOB herbicidal rating (CASOB (Sicklepod) [9]; rate 0.0630 kg/ha): 7.0; CHEAL herbicidal rating ([10]; rate 0.0158 kg/ha): 4.0; CHEAL herbicidal rating ([10]; rate 0.0315 kg/ha): 9.0; CHEAL herbicidal rating ([10]; rate 0.0630 kg/ha): 9.0; Preemergence herbicidal rating ORYSAT (ORYSAT (Rice, Tebonnet); rate 0.0156 kg/ha): 0.0; Preemergence herbicidal rating ORYSAT (ORYSAT (Rice, Tebonnet); rate 0.0313 kg/ha): 0.0; Preemergence herbicidal rating ORYSAT (ORYSAT (Rice, Tebonnet); rate 0.0625 kg/ha): 2.0; Preemergence herbicidal rating ORYSAT (ORYSAT (Rice, Tebonnet); rate 0.1250 kg/ha): 2.0; Preemergence herbicidal rating ORYSAT (ORYSAT (Rice, Tebonnet); rate 0.2500 kg/ha): 4.0; Preemergence herbicidal rating GLXMAW ([11]; rate 0.0156 kg/ha): 0.0; Preemergence herbicidal rating GLXMAW ([11]; rate 0.0313 kg/ha): 1.0; Preemergence herbicidal rating GLXMAW ([11]; rate 0.0625 kg/ha): 1.0; Preemergence herbicidal rating GLXMAW ([11]; rate 0.1250 kg/ha): 1.0; Preemergence herbicidal rating GLXMAW ([11]; rate 0.2500 kg/ha): 9.0; SAGPY herbicidal effect rating ([12]; 0.1250 kg/ha): 3.0; SAGPY herbicidal effect rating ([12]; 0.2500 kg/ha): 4.0

— US20020137929A1, “1 - (3-heterocyclylphenyl) isothiourea, -isourea, -guanidine and -amidine herbicidal agents” (Intellectual Property Department, BASF Aktiengesellschaft, priority 1998, published 2002)
